Converted amounts (≈) assume the structure as drawn. Where a SMILES comes first, the peptide text is derived from it.
Legend:
Yej^+rimL^− strain [1] = type: cell-based; conditions: HPLC-purified variants; microdilution in LB, 96-well; 0.125 to 100 µg/mL; 1.0 × 10^5 CFU/mL; 37 °C 24 h; absorbance 600 nm; triplicate
Procedure: To accurately characterize the bacteriostatic abilities of the variants, the MICs of the pure McC variants toward the McCsensitive strain Yej^+rimL^− were determined. The MICs of all variants were lower than that of wild-type McC. From smallest to largest MIC, the above five variants were in the following order: R2A, R2T, R2Q, R2S, and R2H. […] Although the diameter of the inhibitory zone of R2M was smaller than those of the above five variants, the bacteriostatic ability of R2M was second only to R2T/R2Q, and the MIC was 50 μg/mL.
(§1) The fermentation supernatants and pure products were used to characterize the bacteriostatic effects of McC variants by the agar diffusion and microdilution methods. Yej^+rimL^− and E. coli K88 indicator bacteria were applied. The serotype of E. coli K88 was O149:K91, K88ac, a clinically isolated strain, and provided by the College of Veterinary Medicine, China Agricultural University. The indicated bacteria were diluted to 1 × 10^5 CFU/mL and added to plate medium cooled to 50 °C. Two hundred microliters of supernatants were added to each dish, and diffusion was performed at 4 °C for 1 h. After incubation at 37 °C for 24 h, the diameters of the inhibition zones were determined. One hundred microliters of 0.25 μg/mL chloramphenicol was used as a control. The MICs of the pure McC variants were determined by microdilution in a sterilized 96-well microplate. The McC variants were serially diluted 2 times in 96-well microplates with LB medium. The concentrations of the McC variants ranged from 0.125 to 100 µg/mL. Each well was inoculated with 10 μL of overnight bacterial culture at a concentration of 1.0 × 10^5 CFU/mL and incubated at 37 °C for 24 h. A microplate reader was used to automatically observe changes in absorbance at 600 nm in order to monitor bacterial growth. A positive control group (including inoculated medium) and a negative control group (with medium only) were included. The MIC was determined as the lowest concentration of McC variant that inhibited bacterial growth (preventing an increase in the absorbance reading). All tests were performed in triplicate.

E. coli K88 = assay: microbe, parasite or virus in culture; type: cell-based; conditions: agar diffusion; for antimicrobial activity after trypsin treatment, K88 / Diameters of the inhibition zones, Trypsin-Treated Group, K88: supernatant treated with trypsin 50 μg/mL, 37 °C, 3 h; for Diameters of the inhibition zones, Trypsin-Untreated Group, K88: 200 μL fermentation supernatant, 1 × 10^5 CFU/mL, 4 °C 1 h then 37 °C 24 h, chloramphenicol 100 μL of 0.25 μg/mL; for Diameters of the inhibition zones, Trypsin-Untreated Group, K88 / Diameters of the inhibition zones, Trypsin-Treated Group, K88: dash = no zone; for Diameters of the inhibition zones, Trypsin-Treated Group, K88: pH 6.8, 37 °C 24 h
Procedure: (§2) The pH was adjusted to 6.8.
as §1

Yej^+rimL^− strain [2] = assay: organism not typed; type: cell-based; conditions: agar diffusion; for bacteriostatic activity after trypsin treatment, Yej^+rimL^− / Diameters of the inhibition zones, Trypsin-Treated Group, Yej^+rimL^−: supernatant treated with trypsin 50 μg/mL, 37 °C, 3 h; for Diameters of the inhibition zones, Trypsin-Untreated Group, Yej^+rimL^−: 200 μL fermentation supernatant, 1 × 10^5 CFU/mL, 4 °C 1 h then 37 °C 24 h, chloramphenicol 100 μL of 0.25 μg/mL; for Diameters of the inhibition zones, Trypsin-Untreated Group, Yej^+rimL^− / Diameters of the inhibition zones, Trypsin-Treated Group, Yej^+rimL^−: dash = no zone; for Diameters of the inhibition zones, Trypsin-Treated Group, Yej^+rimL^−: pH 6.8, 37 °C 24 h
Text: To analyze the antimicrobial ability of the variants, we measured the inhibition zones of all 21 variants by the agar diffusion method. The peptide moiety of McC was recognized by a YejABEf-peptide transporter. The rimL contains an acetyltransferase domain homologous to MccE which can detoxify and provide resistance to McC [17]. The overexpression of the YejABEF gene cluster and rimL gene knockout made the strain hypersensitive to McC. Therefore, the Yej^+rimL^− strain was selected as the sensitive indicator bacterial strain.
as §2, §1

[3] = HPLC retention time according to hydrophobicity; type: physicochemical; conditions: chromatographic, C18 5 μm 9.4 × 250 mm; A 0.1% trichloroacetic acid, B 0.1% trichloroacetic acid with 90% acetonitrile; linear 5% B to 50% B; 1 mL/min; 35 °C; 280 nm; varies according to hydrophobicity
Procedure: To find the separation peaks of the variants, wildtype McC and blank control fermentation broth samples were tested by HPLC. The separation peaks with obvious differences (those with retention times of 11 min and 17 min) were purified and the antimicrobial activity was determined. […] Therefore, the molecular weight was further analyzed by mass spectrometry, and the separation peak at approximately 17 min was confirmed to be that of the desired purified McC. Since the mutations in this study involved only one amino acid and had few effects on the properties of the peptides, we predicted that the separation peaks of the variants should fluctuate around approximately 17 min according to their hydrophobicity. […] The purity of the purified variants was determined by HPLC to be greater than 80% (Table 3).
The lyophilized supernatants were dissolved in deionized water, filtered through 0.22 μm aqueous-phase filter membranes, and purified by high-performance liquid chromatography (HPLC, Agilent Technologies Inc., Palo Alto, CA, USA) with C18 column (5 μm 9.4 × 250 mm, Agilent Technologies Inc., Palo Alto, CA, USA). The mobile phase was composed of 0.1% (v/v) trichloroacetic acid (solvent A) and 0.1% (v/v) trichloroacetic acid with 90% (v/v) acetonitrile (solvent B). A linear gradient from 95% A/5% B to 50% A/50% B was used with a flow rate of 1 mL/min, a sample volume of 10 μL, a column temperature of 35 °C, and a detection wavelength of 280 nm. Electrospray ionization mass spectrometry (ESI-MS) was used to compare the McC variant masses with the expected masses. The relationships between the relative abundances and the mass-to-charge ratios (m/z) of the ions were determined to confirm the identities of the experimentally produced McC variants.

indicator bacteria = conditions: second to seventh codons of mccA replaced; cited from earlier work
Text: The heptapeptide precursor of McC, f-MRTGNAN, is encoded by the first gene in the mcc gene clusters, mccA [11]. Considering its protein nature, it is suitable for gene-based peptide engineering. Kazakov et al. first applied site-directed mutagenesis on the mccA gene, systematically replacing the second to seventh codons of mccA encoding 19 standard amino acids for a total of 114 mutations.

[4] = Remaining amount by RP-HPLC after chymotrypsin treatment; type: in vitro ADME; conditions: isolated enzyme chymotrypsin; chymotrypsin treated for 3 h; read-out RP-HPLC; Table S2
Procedure: (§3) To test whether the variants were tolerant to trypsin or other digestive enzymes, the amount of the remaining McC and its analogues remaining was determined by RP-HPLC after trypsin, pepsin, and chymotrypsin treated for 3 h (Table S2), and the inhibition zones of trypsin-treated variants were tested using the same method (Table 2).

[5] = Remaining amount by RP-HPLC after pepsin treatment; type: in vitro ADME; conditions: isolated enzyme pepsin; pepsin treated for 3 h; read-out RP-HPLC; Table S2
Procedure: as §3

chymotrypsin = assay: Remaining amount by RP-HPLC after chymotrypsin treatment; type: in vitro ADME; conditions: chymotrypsin (isolated protease); chymotrypsin treated for 3 h; read-out RP-HPLC; Table S2
Procedure: as §3

pepsin = assay: Remaining amount by RP-HPLC after pepsin treatment; type: in vitro ADME; conditions: pepsin (isolated protease); pepsin treated for 3 h; read-out RP-HPLC; Table S2
Procedure: as §3

SMILES: CSCC[C@H](NC=O)C(=O)N[C@@H](Cc1c[nH]cn1)C(=O)N[C@H](C(=O)NCC(=O)N[C@@H](CC(N)=O)C(=O)N[C@@H](C)C(=O)N[C@@H](CC(=O)O)C(=O)NP(=O)(OCCCN)OC[C@H]1O[C@@H](n2cnc3c(N)ncnc32)[C@H](O)[C@@H]1O)[C@@H](C)O (stereo partly drawn) [R2H] (HELM PEPTIDE1{[O=C[*:2]].M.H.T.G.N.A.[NCCCOP(=O)(NC(=O)[C@H](CC(=O)O)N[*:1])OC[C@H]1O[C@@H](n2cnc3c(N)ncnc32)[C@H](O)[C@@H]1O]}$$$$V2.0)
- MIC (Yej^+rimL^− strain [1]): >100 µg/mL
- antimicrobial activity after trypsin treatment, K88 (E. coli K88): retained their antimicrobial activity
- Diameters of the inhibition zones, Trypsin-Untreated Group, K88 (E. coli K88): 15.55 mm
- Diameters of the inhibition zones, Trypsin-Treated Group, K88 (E. coli K88): 11.99 mm
- bacteriostatic activity after trypsin treatment, Yej^+rimL^− (Yej^+rimL^− strain [2]): exhibited antibacterial effects
- Diameters of the inhibition zones, Trypsin-Untreated Group, Yej^+rimL^− (Yej^+rimL^− strain [2]): 18.39 mm
- Diameters of the inhibition zones, Trypsin-Treated Group, Yej^+rimL^− (Yej^+rimL^− strain [2]): 15.92 mm
- Retention Time [3]: 16.872 min
- antimicrobial activity of mccA substitution variants (indicator bacteria): bacteriostatic
- remaining at 3 h [4]: 42.7 ± 0.69%
- remaining at 3 h [5]: 82.29 ± 0.52%

SMILES: CSCC[C@H](NC=O)C(=O)N[C@@H](C)C(=O)N[C@H](C(=O)NCC(=O)N[C@@H](CC(N)=O)C(=O)N[C@@H](C)C(=O)N[C@@H](CC(=O)O)C(=O)NP(=O)(OCCCN)OC[C@H]1O[C@@H](n2cnc3c(N)ncnc32)[C@H](O)[C@@H]1O)[C@@H](C)O (stereo partly drawn) [R2A] (HELM PEPTIDE1{[O=C[*:2]].M.A.T.G.N.A.[NCCCOP(=O)(NC(=O)[C@H](CC(=O)O)N[*:1])OC[C@H]1O[C@@H](n2cnc3c(N)ncnc32)[C@H](O)[C@@H]1O]}$$$$V2.0)
- MIC (Yej^+rimL^− strain [1]): 12.5 µg/mL (≈ 11.4 µM)
- antimicrobial activity after trypsin treatment, K88 (E. coli K88): retained their antimicrobial activity
- Diameters of the inhibition zones, Trypsin-Untreated Group, K88 (E. coli K88): 16.53 mm
- Diameters of the inhibition zones, Trypsin-Treated Group, K88 (E. coli K88): 11.96 mm
- bacteriostatic activity after trypsin treatment, Yej^+rimL^− (Yej^+rimL^− strain [2]): exhibited antibacterial effects
- Diameters of the inhibition zones, Trypsin-Untreated Group, Yej^+rimL^− (Yej^+rimL^− strain [2]): 21.82 mm
- Diameters of the inhibition zones, Trypsin-Treated Group, Yej^+rimL^− (Yej^+rimL^− strain [2]): 19.07 mm
- Retention Time [3]: 17.167 min
- antimicrobial activity of mccA substitution variants (indicator bacteria): bacteriostatic
- remaining at 3 h [4]: 42.2 ± 0.86%
- remaining at 3 h [5]: 92.2 ± 1.04%

SMILES: CSCC[C@H](NC=O)C(=O)N[C@@H](CC(N)=O)C(=O)N[C@H](C(=O)NCC(=O)N[C@@H](CC(N)=O)C(=O)N[C@@H](C)C(=O)N[C@@H](CC(=O)O)C(=O)NP(=O)(OCCCN)OC[C@H]1O[C@@H](n2cnc3c(N)ncnc32)[C@H](O)[C@@H]1O)[C@@H](C)O (stereo partly drawn) [R2N] (HELM PEPTIDE1{[O=C[*:2]].M.N.T.G.N.A.[NCCCOP(=O)(NC(=O)[C@H](CC(=O)O)N[*:1])OC[C@H]1O[C@@H](n2cnc3c(N)ncnc32)[C@H](O)[C@@H]1O]}$$$$V2.0)
- bacteriostatic effect on indicator strain K88 (E. coli K88; fermentation supernatant, not trypsin-treated): no bacteriostatic effects
- remaining at 3 h (chymotrypsin): 37.7 ± 1.1%
- remaining at 3 h (pepsin): 88.79 ± 0.88%

SMILES: CSCC[C@H](NC=O)C(=O)N[C@@H](CO)C(=O)N[C@H](C(=O)NCC(=O)N[C@@H](CC(N)=O)C(=O)N[C@@H](C)C(=O)N[C@@H](CC(=O)O)C(=O)NP(=O)(OCCCN)OC[C@H]1O[C@@H](n2cnc3c(N)ncnc32)[C@H](O)[C@@H]1O)[C@@H](C)O (stereo partly drawn) [R2S] (HELM PEPTIDE1{[O=C[*:2]].M.S.T.G.N.A.[NCCCOP(=O)(NC(=O)[C@H](CC(=O)O)N[*:1])OC[C@H]1O[C@@H](n2cnc3c(N)ncnc32)[C@H](O)[C@@H]1O]}$$$$V2.0)
- MIC (Yej^+rimL^− strain [1]): 100 µg/mL (≈ 90.2 µM)
- antimicrobial activity after trypsin treatment, K88 (E. coli K88): retained their antimicrobial activity
- Diameters of the inhibition zones, Trypsin-Untreated Group, K88 (E. coli K88): 13.46 mm
- Diameters of the inhibition zones, Trypsin-Treated Group, K88 (E. coli K88): 9.44 mm
- bacteriostatic activity after trypsin treatment, Yej^+rimL^− (Yej^+rimL^− strain [2]): exhibited antibacterial effects
- Diameters of the inhibition zones, Trypsin-Untreated Group, Yej^+rimL^− (Yej^+rimL^− strain [2]): 17.35 mm
- Diameters of the inhibition zones, Trypsin-Treated Group, Yej^+rimL^− (Yej^+rimL^− strain [2]): 16.34 mm
- Retention Time [3]: 17.004 min
- antimicrobial activity of mccA substitution variants (indicator bacteria): bacteriostatic
- remaining at 3 h [4]: 41.3 ± 1.27%
- remaining at 3 h [5]: 84.33 ± 0.77%

SMILES: CSCC[C@H](NC=O)C(=O)N[C@@H](CCSC)C(=O)N[C@H](C(=O)NCC(=O)N[C@@H](CC(N)=O)C(=O)N[C@@H](C)C(=O)N[C@@H](CC(=O)O)C(=O)NP(=O)(OCCCN)OC[C@H]1O[C@@H](n2cnc3c(N)ncnc32)[C@H](O)[C@@H]1O)[C@@H](C)O (stereo partly drawn) [R2M] (HELM PEPTIDE1{[O=C[*:2]].M.M.T.G.N.A.[NCCCOP(=O)(NC(=O)[C@H](CC(=O)O)N[*:1])OC[C@H]1O[C@@H](n2cnc3c(N)ncnc32)[C@H](O)[C@@H]1O]}$$$$V2.0)
- MIC (Yej^+rimL^− strain [1]): 50 µg/mL (≈ 43.4 µM)
- Diameters of the inhibition zones, Trypsin-Untreated Group, K88 (E. coli K88): 12.37 mm
- bacteriostatic activity after trypsin treatment, Yej^+rimL^− (Yej^+rimL^− strain [2]): exhibited antibacterial effects
- Diameters of the inhibition zones, Trypsin-Untreated Group, Yej^+rimL^− (Yej^+rimL^− strain [2]): 21.57 mm
- Diameters of the inhibition zones, Trypsin-Treated Group, Yej^+rimL^− (Yej^+rimL^− strain [2]): 14.31 mm
- Retention Time [3]: 19.622 min
- antimicrobial activity of mccA substitution variants (indicator bacteria): loss of antimicrobial activity
- remaining at 3 h [4]: 43.8 ± 0.68%
- remaining at 3 h [5]: 88.7 ± 0.93%

Reference: PMC10525924, “Engineering and Purification of Microcin C7 Variants Resistant to Trypsin and Analysis of Their Biological Activity” (Antibiotics, 2023)
